Entries after “also recorded” stand apart in the source; their conditions may differ. One block for each compound: values may come before it.
Assays:
wild-type human OCT2 = target: T1, wild-type human OCT2 (Homo sapiens, UniProt O15244); assay: Cellular uptake ratio, OCT2-overexpressing HEK293 cells vs empty vector; type: cell-based; conditions: for uptake by OCT2 (normalised to empty vector): 1 µM and 100 µM substance; for OCT2 transport category: based on ratio uptake data at 1 µM
T1 sequence (O15244 1-555): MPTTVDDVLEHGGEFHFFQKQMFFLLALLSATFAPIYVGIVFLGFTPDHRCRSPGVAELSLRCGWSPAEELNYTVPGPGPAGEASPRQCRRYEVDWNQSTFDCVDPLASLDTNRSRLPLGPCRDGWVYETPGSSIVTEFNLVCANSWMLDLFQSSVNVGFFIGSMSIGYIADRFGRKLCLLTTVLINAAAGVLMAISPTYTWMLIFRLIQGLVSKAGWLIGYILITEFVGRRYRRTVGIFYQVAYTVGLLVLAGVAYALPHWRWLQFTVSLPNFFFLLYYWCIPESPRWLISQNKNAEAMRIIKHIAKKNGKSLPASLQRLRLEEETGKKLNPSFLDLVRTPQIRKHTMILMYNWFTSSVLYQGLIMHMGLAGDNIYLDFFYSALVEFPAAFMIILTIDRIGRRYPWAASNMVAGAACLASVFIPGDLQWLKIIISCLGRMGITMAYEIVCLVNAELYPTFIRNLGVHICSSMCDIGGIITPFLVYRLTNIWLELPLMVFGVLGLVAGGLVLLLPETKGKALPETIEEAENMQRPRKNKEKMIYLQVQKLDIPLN
In short: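 Flp-In HEK293 cells stably expressing transporter, or empty pcDNA5/FRT vector as control, incubated at 37 °C in HBSS with 10 mM HEPES, pH 7.4, with substrate. Uptake quantified by LC-MS with internal standard and normalised to total protein. Ratio = total uptake in transporter cells divided by that in empty-vector cells.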

OCT1 = conditions: cited from earlier work
OCT1 wild-type = target: T2, OCT1 wild-type (Homo sapiens, UniProt O15245); assay: Inhibition of OCT1-mediated prostaglandin uptake by MPP+; type: cell-based; conditions: 1 mM inhibitor, 100 µM prostaglandin
T2 construct: expressed in transfected cells
Experimental: Forty-eight hours before the transport experiments, 600,000 cells were plated on 12-well plates pre-coated with poly-D-lysine and incubated at 37 °C with 5% CO2. The prepared 12-well plate with cells was positioned on a heating plate pre-warmed to 37 °C. After removing the medium, the cells were washed with 37 °C HBSS+ (10 mM HEPES in Hank’s balanced salt solution, pH 7.4). Then, one pre-defined concentration of a substrate was added to each well. The incubation period was stopped by adding 2 mL of 4 °C HBSS+ and removing the cells from the heating plate. The cells were washed twice with 4 °C HBSS+. For cell lysis, the cells were incubated for 15 min with 500 µL of 80% acetonitrile (LGC Standards, Wesel, Germany), which contained a respective internal standard (Table 1).
Figure 8 Cellular uptake of prostaglandins by OCT1. Cellular uptake ratios were determined in HEK293 cells that were transfected stably with OCT1 or its variants that were incubated with 1 µM (light blue), 10 µM (medium blue), and 100 µM (dark blue) of prostaglandin E2 and F2α for 120 s. […] Statistical significance of the uptake ratio between OCT1 and its variants and between inhibited and not inhibited OCT1 was determined using an unpaired students t-test with * p < 0.05, ** p < 0.01, and *** p < 0.001.

mutant human OCT1 D474N = target: T3, mutant human OCT1 D474N (Homo sapiens, UniProt O15245, D474N); assay: Cellular uptake by HEK293 cells overexpressing variant OCT1 D474N; type: cell-based; conditions: 1, 10 and 100 µM, 120 s
T3 construct: expressed in transfected cells
T3 sequence (O15245 1-554 D474N): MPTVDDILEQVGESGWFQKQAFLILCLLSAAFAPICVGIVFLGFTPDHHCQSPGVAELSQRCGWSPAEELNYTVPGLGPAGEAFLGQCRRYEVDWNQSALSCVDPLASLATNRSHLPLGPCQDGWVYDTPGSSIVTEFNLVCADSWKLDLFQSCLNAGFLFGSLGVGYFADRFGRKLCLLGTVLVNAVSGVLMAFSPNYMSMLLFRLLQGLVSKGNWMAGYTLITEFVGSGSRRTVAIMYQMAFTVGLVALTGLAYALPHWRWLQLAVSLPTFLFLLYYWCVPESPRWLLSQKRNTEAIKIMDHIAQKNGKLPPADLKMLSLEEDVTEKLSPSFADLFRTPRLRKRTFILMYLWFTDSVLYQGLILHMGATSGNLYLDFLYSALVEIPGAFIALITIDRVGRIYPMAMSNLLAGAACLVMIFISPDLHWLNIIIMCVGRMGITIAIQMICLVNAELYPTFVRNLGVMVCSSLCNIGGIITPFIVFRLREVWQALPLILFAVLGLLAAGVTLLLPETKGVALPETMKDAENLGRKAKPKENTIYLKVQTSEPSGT

OCT1 (wild-type, OCT1*1) = OCT1 (wild-type, OCT1*1) (Homo sapiens, UniProt O15245); assay: Concentration-dependent uptake (transport kinetics) in HEK293 cells overexpressing OCT1 wild-type; conditions: human, HEK293 cells stably overexpressing human OCT1*1 (wild-type), pH 7.4, KM (±SEM), net uptake (OCT1 minus empty vector), HEK293, 0.1-1000 µM substrate, Michaelis–Menten
[1] = no reference given; cited from earlier work

uptake by OCT2 (normalised to empty vector) (wild-type human OCT2): cellular uptake by OCT2 was observed
SMILES: Nc1nc(=O)n([C@@H]2CS[C@H](CO)O2)cc1F [Emtricitabine, emtricitabine]

SMILES: N[C@@H](Cc1ccc(O)c(O)c1)C(=O)O [Levodopa, levodopa]
OCT2 transport category (wild-type human OCT2): 0 (no transport by OCT1, OCT2, and OCT3 occurred (i.e., no kinetic parameters or uptake ratio <2 without significance))

SMILES: N=C(N)c1ccc(OCCCCCOc2ccc(C(=N)N)cc2)cc1 [Pentamidine, pentamidine]
OCT2 transport category (wild-type human OCT2): 0 (no transport by OCT1, OCT2, and OCT3 occurred (i.e., no kinetic parameters or uptake ratio <2 without significance))
Km (OCT1): 36.4 µM
intrinsic clearance (OCT1): 4.3 µL/mg protein/min

SMILES: CCCCC[C@H](O)/C=C/[C@H]1[C@H](O)CC(=O)[C@@H]1C/C=C\CCCC(=O)O [Prostaglandin E2, prostaglandin E2]
uptake by OCT1 wild-type with the inhibitor MPP+ (OCT1 wild-type): statistically significantly reduced uptake
uptake of prostaglandins by OCT1 D474N in comparison to wild-type (mutant human OCT1 D474N): reduced to the level of the control cell line; also recorded: almost abolished

uptake by OCT1 wild-type with the inhibitor MPP+ (OCT1 wild-type): not statistically significant
Km (OCT1 (wild-type, OCT1*1)): 719 µM
SMILES: CCCCC[C@H](O)/C=C/[C@@H]1[C@@H](C/C=C\CCCC(=O)O)[C@@H](O)C[C@H]1O [Prostaglandin F2α, prostaglandin F2α]
uptake of prostaglandins by OCT1 D474N in comparison to wild-type (mutant human OCT1 D474N): reduced to the level of the control cell line

uptake by OCT2 (normalised to empty vector) (wild-type human OCT2): only minimal
SMILES: COc1cc(Cc2cnc(N)nc2N)cc(OC)c1OC [Trimethoprim, trimethoprim]
OCT2 transport category (wild-type human OCT2): +/− (poor transport with a Clint < 5 or ratio between 1–2 with statistical significance (p < 0.05))
fraction eliminated via the kidneys [1]: about 75%

uptake by OCT2 (normalised to empty vector) (wild-type human OCT2): cellular uptake by OCT2 was observed
SMILES: Nc1ccn([C@H]2CC[C@@H](CO)O2)c(=O)n1 [Zalcitabine, zalcitabine]
OCT2 transport category (wild-type human OCT2): + (good substrates of OCTs when the intrinsic clearance is between 5–15 or the ratio is 2–10)

— publication PMC9687798, “Atypical Substrates of the Organic Cation Transporter 1” (Biomolecules, 2022)
